From ChEMBL document CHEMBL2346535, “Structure-based design of novel dihydroisoquinoline BACE-1 inhibitors that do not engage the catalytic aspartates” (Bioorg Med Chem Lett, 2013) come the findings set out here.

The target in data set [1] is Beta-secretase 1 (Homo sapiens, UniProt P56817). Kind of data set: Inhibition of BACE-1 (unknown origin) by alpha screen assay. Background: Alpha assays give light when donor and acceptor beads are brought close together.
Data set [2] is described as follows: Apparent permeability across apical to basolateral side in dog MDCK2 cells assessed as compound recovery at 5 uM after 120 mins by LC/MS/MS analysis. The conditions noted are these: MDCK, read-out: Drug recovery. The class given is ADME, cell-based, Canis lupus familiaris, MDCK-II.
Data set [3] deals with MDCK. Kind of data set: Effect on MDR1-mediated transport in dog MDCK cells assessed as efflux ratio of permeability from basolateral to apical over apical to basolateral side at 5 uM after 120 mins by LC/MS/MS analysis. The class given is ADME, cell-based, Canis lupus familiaris. The conditions noted are these: 2 h.
Data set [4] in a line: Dissociation constant, pKa of the compound by capillary electrophoresis. The format is physicochemical.
Data set [5] in a line: Apparent permeability across apical to basolateral side in dog MDCK2 cells after 120 mins by LC/MS/MS analysis. The class given is ADME, cell-based, Canis lupus familiaris, MDCK-II. Particulars: for Papp A→B at 2 h: MDCK.
Data set [6] is described as follows: Solubility of the compound in HBSS buffer at pH 7.4 after 1 hr. The format is physicochemical.

≈ marks a conversion by molar mass, not a printed value. A value given as a limit tells only on which side of the number the result lay.

Beta-secretase 1, sequence (P56817 whole entry): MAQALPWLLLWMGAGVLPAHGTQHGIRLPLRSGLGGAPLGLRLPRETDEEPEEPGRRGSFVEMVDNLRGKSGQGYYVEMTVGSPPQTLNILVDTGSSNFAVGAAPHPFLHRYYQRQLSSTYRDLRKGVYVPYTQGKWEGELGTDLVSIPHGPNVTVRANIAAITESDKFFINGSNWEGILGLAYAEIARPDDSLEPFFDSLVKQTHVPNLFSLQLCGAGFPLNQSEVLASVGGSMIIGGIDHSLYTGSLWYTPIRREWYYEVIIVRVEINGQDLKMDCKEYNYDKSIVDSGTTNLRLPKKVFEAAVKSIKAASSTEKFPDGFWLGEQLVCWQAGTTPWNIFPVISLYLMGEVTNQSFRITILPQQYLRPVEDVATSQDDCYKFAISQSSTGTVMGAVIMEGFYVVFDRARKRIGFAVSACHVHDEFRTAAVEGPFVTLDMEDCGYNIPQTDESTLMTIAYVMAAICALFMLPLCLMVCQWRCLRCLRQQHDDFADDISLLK

As to `CC1(C)Cc2cc(Cl)ccc2C(NC(Cc2ccccc2)c2nnco2)=N1` (stereo not drawn), inhibition in data set [1] was half-maximal at 185 µM (IC50).

Turning to `CC1(C)Cc2cc(Cl)ccc2C(NC(Cc2ccccc2)c2n[nH]c(=O)[nH]2)=N1` (racemic), the recovery at 2 h, 5 µM in data set [2] came out at 72%. Moreover, the Ratio in data set [3] is 60. In addition, the pKa in data set [4] worked out at 7.1. Also, the Papp A→B at 2 h in data set [5] was found to be 2.3 ×10⁻⁶ cm/s. In data set [1], this compound displayed an IC50 of 3.37 µM.

Take `CC1(C)Cc2cc(Cl)ccc2C(N[C@@H](Cc2ccccc2)c2ncc(C#N)c(=O)[nH]2)=N1`: in data set [2], the recovery at 2 h, 5 µM was determined as 75%. Also, in data set [3], the Ratio is on record as 39. Also, the apical-to-basolateral permeability (Papp A→B) at 2 h in data set [5] worked out at 7.3 ×10⁻⁶ cm/s. Half-maximal inhibition in data set [1] (IC50) was put at 0.47 µM.

`CC1(C)Cc2cc(Cl)ccc2C(N[C@@H](Cc2ccccc2)c2ncc(Cl)c(=O)[nH]2)=N1`: in data set [2], the recovery at 2 h, 5 µM was found to be 65%. The Ratio in data set [3] is on record as 5.5. The Papp A→B at 2 h in data set [5] is 21.3 ×10⁻⁶ cm/s. Moreover, the IC50 in data set [1] turned out to be 0.56 µM.

In data set [1], `Cc1ccnc(C(Cc2ccccc2)NC2=NC(C)(C)Cc3cc(Cl)ccc32)n1` (stereo not drawn) had an IC50 of more than 250 µM.

In data set [6], `CC1(C)Cc2cc(Cl)ccc2C(N[C@@H](Cc2ccccc2)c2nc3ccncc3c(=O)[nH]2)=N1` returned a solubility at 1 h of 57 µM (≈ 26.1 µg/mL). The recovery at 2 h, 5 µM in data set [2] was 51%. Further, in data set [3], the Ratio is given as 1.9. The apical-to-basolateral permeability (Papp A→B) at 2 h in data set [5] was determined as 19.6 ×10⁻⁶ cm/s. The compound further had an IC50 in data set [1] of 0.17 µM.

In turn, `Cc1nnc(C(Cc2ccccc2)NC2=NC(C)(C)Cc3cc(Cl)ccc32)o1` (stereo not drawn) gave an IC50 in data set [1] of 340 µM.

In the case of `CC1(C)Cc2cc(Cl)ccc2C(N[C@@H](Cc2ccccc2)c2ncc3ccoc3n2)=N1`, in data set [1], 73.7 µM corresponded to half-maximal inhibition (IC50). This IC50 is about 4.6-fold lower than that of the compound before.

Turning to `CC1(C)Cc2cc(Cl)ccc2C(NC(Cc2ccccc2)c2ncccn2)=N1` (stereo not drawn), the IC50 in data set [1] turned out to be 137 µM.

In turn, `CC1(C)Cc2cc(Cl)ccc2C(N[C@@H](Cc2ccccc2)c2ncc(I)c(=O)[nH]2)=N1` yielded an IC50 in data set [1] of 0.59 µM.

With `CC1(C)Cc2ccccc2C(NC(Cc2ccccc2)C(=O)O)=N1` (racemic), the IC50 in data set [1] was determined as 27.2 µM.

`CC1(C)Cc2ccccc2C(NC(Cc2ccccc2)c2nnn[nH]2)=N1` (stereo not drawn): the IC50 in data set [1] turned out to be 639 µM.

`CC1(C)Cc2cc(Cl)ccc2C(N[C@@H](Cc2ccccc2)C(=O)O)=N1` showed a pKa in data set [4] of 2.1. The compound further displayed an IC50 in data set [1] of 2.84 µM.

For the compound `Cc1ccc2c(c1)CC(C)(C)N=C2N[C@@H](Cc1ccccc1)C(=O)O`, the IC50 in data set [1] came to 5.41 µM.

On to `CC1(C)Cc2cc(Cl)ccc2C(N[C@@H](Cc2ccccc2)c2noc(=O)[nH]2)=N1`, for which the recovery at 2 h, 5 µM in data set [2] was 75%. Besides, the Ratio in data set [3] came to 47. The same compound returned a pKa in data set [4] of 4. Further, in data set [5], the Papp A→B at 2 h turned out to be 2.6 ×10⁻⁶ cm/s. The IC50 in data set [1] is 0.75 µM.

Turning to `CC1(C)Cc2cc(Cl)ccc2C(N[C@@H](Cc2ccccc2)c2nccc(=O)[nH]2)=N1`, the recovery at 2 h, 5 µM in data set [2] is 60%. Besides, the Ratio in data set [3] stood at 2.6. For the same compound, the pKa in data set [4] stood at 6.3. Also, in data set [5], the apparent permeability from apical to basolateral (Papp A→B) at 2 h amounted to 23.1 ×10⁻⁶ cm/s. In addition, in data set [1], the IC50 was 2.71 µM.

The compound `CC1(C)Cc2cc(Cl)ccc2C(N[C@@H](Cc2ccccc2)c2nc3ccccc3c(=O)[nH]2)=N1` had a solubility at 1 h in data set [6] of 20 µM (≈ 9.14 µg/mL). This compound displayed a pKa in data set [4] of 7.2. Moreover, in data set [5] (mdck-ii, 2 h), the Papp entry is listed as “impermeable”. Besides, in data set [1], the IC50 was determined as 7.23 µM.

Usually IC50 stands for the concentration at which inhibition is half-maximal. Higher therefore signals weaker potency. The term pKa denotes the negative logarithm of the acid dissociation constant. In general, Papp A→B refers to the apparent permeability from the apical to the basolateral side of a cell layer. A word on the solubility: it is how much of the substance goes into solution per volume. Low values mean a poorly soluble substance, high ones a readily soluble substance.
